Assay results as given in US10525044B2, “Treatment for chemotherapy-induced peripheral neuropathy” (priority 2013, dated 2020).

What was measured:
[1] = tested on: mixed cortical and striatal neurons; experiment: LDH assay (cell membrane integrity) in neuronal cell culture; assay type: cell-based
Protocol: (§1) Neuronal Cell Culture. Mixed cortical and striatal neurons fromembryonic day 17 male Sprague-Dawley rats (tissue obtained from NIH) were seeded into poly-D-lysine coated 96-well plates at density of 50,000 cells/well and initially cultured at 37° C., 5% CO2, in neurobasal medium (NB) with B27 supplement (Invitrogen) containing full strength of AOs to obtain highly enriched (95%) neurons. Since AOs, including vitamin E, vitamin E acetate, superoxide dismutase (SOD), catalase (CAT), and GSH, are additives to culture medium, reduction of AO concentration in culture medium provides an approach to determine the level of OS involvement in a neurotoxic process. In our study, the culture medium was replaced at a 50% ratio with NB plus B27 minus AOs twice at days 7 and 9 to set AO concentrations as 50% and 25%, respectively. At 16 days in vitro (d.i.v.), a fraction of the culture medium was harvested for lactate dehydrogenase (LDH) assay, and then AO concentration was reduced to 12.5% and cultured for a further 5 hours prior to ending the experiment.
(§2) Cell Insults and Treatments. Determination of concentration for each anticancer drug in our experiments was based on its reported concentration in human cerebral spinal fluid (CSF) in chemotherapy, literature report of its neurotoxicity in culture, and our preliminary in vitro experimental data. At 13 d.i.v., the neuronal cell cultures were insulted with 100 μM of MTX (M9929, Sigma), 25 μM of 5-FU (F6627, Sigma), or 3.5 μM of CDDP (sc-200896, Santa Cruz) for 3 days in absence or presence of PAN 811.Cl.H2O. For ROS examination, the neurons were insulted with both 100 μM of MTX and 25 μM of 5-FU by 15 d.i.v. PAN-811.Cl.H2O was added to cultures to final concentrations of 1.25, 2.5, 5, and 10 μM at the same time as addition of the anticancer drugs. For cancer cell lines, the cells were insulted by the second day of cell seeding with the same concentration of MTX, 5-FU, or CDDP as used in neuronal culture in the absence or presence of 10 μM PAN-811.Cl.H2O for another 3 days.
(§3) Quantitative Assays and Morphological Assessment. Cell membrane integrity and mitochondrial function of either neurons or cancer cells were measured with LDH and 3-(4,5-dimethylthiazol-2-yl)-5-(3-carboxymethoxyphenyl)-2-(4-sulfophenyl)-2H-tetrazolium [MTS] analyses, respectively. The latter has been used to quantify cell survival. For the LDH assay, a mixture of a 35 μL aliquot of culture supernatant and 17.5 μL of Mixed Substrate, Enzyme and Dye Solutions (Sigma) was incubated at room temperature (RT) for 30 minutes. For the MTS assay, 10 μL of MTS reagent (Promega) was added to a culture well containing neurons in 50 μL of medium. The preparations were incubated at 37° C. for 2 hours. The preparations for both assays were then spectrophotometrically measured at 490 nm using a 96-well plate reader (Mode 550, Bio-Rad). Neuronal cell death was morphologically determined based on the integrity of the cell soma and continuity of neuronal processes. The change in number of cancer cells was judged directly by cell density. Cells were photographed under an inverted phase contrast microscope (IX 70, Olympus) using 10× or 20× objective.
(§4) Data Analysis. Data were generated from 4-6 replicate wells, expressed as mean±standard deviation (SD), and statistically evaluated at a significance level of 1% with one factor ANOVA or Student's t-test by using software VASSARSTATS (http://vassarstats.net/) followed by the Tukey HSD test. Figure symbols are as follows: #, P<0.05, and ##, P<0.01, compared with control; *, P<0.05, and **, P<0.01, compared with the insulted group; §§, P<0.01, compared with PAN-811 treated group by Student's t-test.

ribonucleotide reductase = target: T1, ribonucleotide reductase (Homo sapiens, UniProt P31350); settings: cited from earlier work
T1 sequence (P31350 1-389): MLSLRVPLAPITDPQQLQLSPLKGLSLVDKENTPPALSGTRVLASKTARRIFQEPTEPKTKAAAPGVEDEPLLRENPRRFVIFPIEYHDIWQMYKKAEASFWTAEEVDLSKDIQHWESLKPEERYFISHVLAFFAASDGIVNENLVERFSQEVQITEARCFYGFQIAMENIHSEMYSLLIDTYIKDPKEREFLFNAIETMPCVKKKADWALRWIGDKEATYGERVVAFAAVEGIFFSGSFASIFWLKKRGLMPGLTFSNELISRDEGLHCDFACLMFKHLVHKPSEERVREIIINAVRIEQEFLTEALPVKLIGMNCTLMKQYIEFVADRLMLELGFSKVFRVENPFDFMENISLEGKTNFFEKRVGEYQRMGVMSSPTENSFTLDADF

[2] = tested on: middle cerebral artery occlusion (MCAo); settings: cited from earlier work
[3] = tested on: mixed cortical and striatal neurons; experiment: MTS assay (cell viability) in neuronal cell culture; assay type: cell-based
Protocol: as §1, §2, §3, §4

sodium channel = settings: cited from earlier work
[4] = 500 μM diphenylpicrylhydrazyl, cell free; cited from earlier work
[5] = tested on: staurosporine-induced apoptosis; settings: cited from earlier work
[6] = tested on: hydrogen peroxide-induced LDH release; settings: cited from earlier work
[7] = tested on: hypoxia-induced neuronal cell death; settings: 1.2 μM; cited from earlier work
[8] = tested on: mouse liver cancer cell line BNLT3; experiment: MTS assay in BNLT3 cancer cells; assay type: cell-based
Protocol: Cancer Cell Culture. The mouse liver cancer cell line BNLT3 (gift of Dr. Jack Wands, Brown University) and the human lung cancer cell line H460 (ATCC) were seeded into 96-well plates at a density of 4,000 cells/well and cultured at 37° C., 5% CO2, in DMEM (11965, Gibco) supplemented with 10% fetal bovine serum, 20 mM HEPES, 1 mM sodium pyruvate, and […] gentamycin (all reagents came from Gibco).
as §2, §3, §4

NC(=S)N/N=C/c1ncccc1N [PAN-811, 3-aminopyridine-2-carboxaldehyde thiosemicarbazone]
LDH release in CDDP-insulted cultures ([1]; 5 μM PAN-811, 3.5 μM CDDP): fully blocked
LDH release in 5-FU-insulted cultures ([1]; 5 μM PAN-811, 25 μM 5-FU): fully blocked
LDH release in MTX-insulted cultures ([1]; 5 μM PAN-811, 100 μM MTX): fully blocked
MTX/5-FU-elicited LDH increase ([1]; 10 μM PAN-811, 100 μM MTX and 25 μM 5-FU): fully inhibited
suppression of MTX/5-FU-elicited LDH release, concentration dependence ([1]; PAN-811 1.25 to 10 μM, 100 μM MTX and 25 μM 5-FU): concentration-dependent suppression
LDH increase caused by each anticancer drug, dose dependence ([1]; neurons, MTX 100 μM, 5-FU 25 μM or CDDP 3.5 μM): dose-dependently suppressed
ability to inhibit ribonucleotide reductase (ribonucleotide reductase): inhibit
reduction of mortality ([2]; PAN-811 treated groups collectively): 44%
reduction in brain edema volume ([2]; i.v., 2 mg/kg): 70%
reduction of infarct volume, maximal protection ([2]; single i.v. bolus, 2 mg/kg): 50%
inhibition of CDDP-induced MTS reduction ([3]; 10 μM PAN-811, 3.5 μM CDDP, 12.5% AO): 48%
5-FU-induced MTS reduction ([3]; 10 μM PAN-811, 25 μM 5-FU, 12.5% AO): completely blocked
5-FU- or CDDP-induced MTS reduction, dose dependence ([3]; neurons in 12.5% AO, PAN-811 1.25-10 μM): dose-dependently inhibited
veratridine-induced sodium channel opening related to Ca2+ influx (sodium channel): prevents
reduction of stable free radical diphenylpicrylhydrazyl [4]: 70%
staurosporine-induced apoptosis [5]: prevents
suppression of hydrogen peroxide-induced LDH release ([6]; 1 μM, vs untreated/H2O2-insulted group): 78%
suppression of hydrogen peroxide-induced LDH release, maximal protection ([6]; 10 μM, vs untreated and H2O2-insulted group): 90%
EC50 ([6]; read-out: EC50, protection against hydrogen peroxide-induced LDH release): ~550 nM
hypoxia-induced neuronal cell death [7]: completely halted
MTS reading, cotreatment vs PAN-811 alone ([8]; 3.5 μM CDDP and 10 μM PAN-811, 3 days): did not introduce an extra reduction in MTS reading
inhibition of the effect of MTX, 5-FU, or CDDP on BNLT3 cells ([8]; 10 μM PAN-811): did not show any inhibition
synergistic effect with each tested anticancer drug on BNLT3 cell growth ([8]; 10 μM PAN-811): neither did it demonstrate any synergistic effect
MTS reading, cotreatment vs 5-FU alone ([8]; 25 μM 5-FU and 10 μM PAN-811, 3 days): caused a further reduction in MTS reading
MTS reading, cotreatment vs MTX alone ([8]; 100 μM MTX and 10 μM PAN-811, 3 days): did not cause any further reduction in MTS reading
